This is an account of results in patent US7332489B2, “Methods and compositions of novel triazine compounds” (Reddy US Therapeutics, Inc., priority 2003, dated 2008).

Structures can show the parent of a compound that is named as a salt. Where two headings read alike, the source gives them in different places.

The data set has as its system TNF-α induced IL-6. As to the kind of experiment: TNF-α-induced IL-6 production determined by IL-6 ELISA. The following applies: for activity at 10 µM / inhibition at 10 µM: Homo sapiens; for Inflammation Data (result in words): concentration not given. The data set is classed as cell-based. As to the method:
Human aortic endothelial cells (HAEC, Clonetics) were cultured according to manufacturer in growth medium (Clonetics): basal medium containing human epidermal growth factor, hydrocortisone, vascular endothelial growth factor, heparin binding growth factor-B, long R3-insulin-like growth factor-1, ascorbic acid, gentamicin/amphotericin and 5% FBS. These cell were allowed to reach at least 90% confluency before subjected to experimental treatments. […] Tumor necrosis factor α was from R&D Systems.
All treatments, compound-added and controls were carried out in serum free media containing 0.2% albumin. Media from all conditions were collected and used for IL-6 ELISA.
IL-6 ELISA was carried out using human IL-6 DuoSet ELISA development kit as described by manufacturer (R&D Systems). Mouse anti-human Il-6 was used as the capture antibody (2 ug/ml) and biotinylated goat anti-human IL-6 (200 ng/ml) was used as the detection antibody. Culture media were incubated with capture antibody (in 96 well) for 2 h at room temperature. Wells were washed three times with wash buffer (0.05% tween-20 in phosphate buffered saline (PBS) pH 7.4) followed by incubation with detection antibody for 2 h at room temperature. Following three washes wells were incubated with Streptavidin-HRP for 20 min. Color development was read at 450 nm in a Microplate reader.

Setting [1] is: 24 h, Table 5, first part, class = % of control IL6 production, read-out: Inhibition of TNF-induced IL6 production.
Where [2] appears, read: 24 h, Table 5, second part, column 1, class = % of control IL6 production, read-out: Inhibition of TNF-induced IL6, production.
The mark [3] stands for this setting: HAEC, 10 uM compound, TNF stimulation = 100%.

On to `CCN1CCCC1CNc1nc(Nc2cccc(NC(C)=O)c2)nc(NC2CCCCCC2)n1` (centres unmarked) [Compound 30, N-{3-[(4-(cycloheptylamino)-6-{[(1-ethyl-2-pyrrolidinyl)methyl]amino}-1,3,5-triazin-2-yl)-amino]phenyl}acetamide], for which the activity at 10 µM runs as follows: under setting [1], 0 to 25%; under setting [2], 0 to 25%.

Consider `COc1ccc(Nc2nc(NC3CCCCCC3)nc(OCc3cccc(C)n3)n2)cc1Cl`, for which the inhibition at 10 µM (10 uM, read-out: Inflammation Data, inhibition at 10 uM) is 60%.

With `COc1ccc(Nc2nc(NC3CC3)nc(N(C)C3CCN(C)CC3)n2)cc1Cl`, the “Inflammation Data (result in words)” value is given as “Not active”. Also, the “Inflammation Data, cell death at 10 uM” value (10 uM) amounted to 15%.

As for `COc1ccc(Nc2nc(NC3CCCCCC3)nc(N3CCN(C(C)=O)CC3)n2)cc1F` [Compound 88, 6-(4-acetyl-1-piperazinyl)-N^2-cycloheptyl-N^4-(3-fluoro-4-methoxyphenyl)-1,3,5-triazine-2,4-diamine], under setting [1], the activity at 10 µM fell in the range of 0 to 25%.

Consider `COc1ccc(Nc2nc(NC3CCCCCC3)nc(N3CCOCC3)n2)cc1F` [Compound 175, N-Cycloheptyl-N′-(3-fluoro-4-methoxy-phenyl)-6-morpholin-4-yl-[1,3,5]triazine-2,4-di-amine], for which the inhibition at 10 µM (24 h, Table 7, first part, read-out: Inhibition of TNF-induced IL6 production) lay in the range of 85 to 100%.

For the molecule `CCN1CCCC1CNc1nc(Nc2ccc(OC)c(F)c2)nc(NC2CCCCCC2)n1` (centres unmarked) [Compound 95, N^2-cycloheptyl-N^4-[(1-ethyl-2-pyrrolidinyl)methyl]-N^6-(3-fluoro-4-methoxyphenyl)-1,3,5-triazine-2,4,6-triamine], the activity at 10 µM (24 h, read-out: Inhibition of TNF-induced IL6, production) fell in the range of 0 to 25% and the activity at 10 µM (24 h, read-out: Inhibition of TNF-induced IL6 production) was 0 to 25%.

Turning to `CCN1CCC[C@@H]1CNc1nc(NC2CCCCCC2)nc(N(CC#N)c2ccccc2)n1` [Compound 144, ({4-cycloheptylamino-6-[((R)-1-ethyl-pyrrolidin-2-ylmethyl)-amino]-1,3,5-triazin-2-yl}-phenyl-amino)-acetonitrile], the activity at 10 µM under setting [1] lay within 0 to 25%.

Regarding `CCNc1nc(Nc2ccc(OC)c(F)c2)nc(NC2CCCCCC2)n1` [Compound 76, N^2-cycloheptyl-N^4-ethyl-N^6-(3-fluoro-4-methoxyphenyl)-1,3,5-triazine-2,4,6-triamine], under setting [1], the activity at 10 µM lay within 0 to 25%.

In the case of `COc1ccc(Nc2nc(NC3CCCCCC3)nc(N(C)C3CCN(C)CC3)n2)cc1F` [Compound 168, N^2-cycloheptyl-N^4-(3-fluoro-4-methoxy-phenyl)-N^6-methyl-N^6-(1-methyl-piperidin-4-yl)-1,3,5-triazine-2,4,6-triamine citrate salt], the “% IL6 production compare to TNF stimulation of IL6 (100%), HAEC, IL6, @ 5 uM” value (HAEC, TNF stimulated, compound 5 uM (bracketed value), citrate salt) was determined as 40%. Also, where the note is “HAEC, TNF stimulated, compound 10 uM”, the “% IL6 production compare to TNF stimulation of IL6 (100%), Compds tested @ 10 uM HAEC, IL6” value is reported as “total cell death”.

Consider `CCN1CCC[C@@H]1CNc1nc(NCC2CCCCC2)nc(Nc2ccc(OC)c(F)c2)n1` [Compound 142, N^2-cyclohexylmethyl-N^4-((R)-1-ethyl-pyrrolidin-2-ylmethyl)-N^6-(3-fluoro-4-methoxyphenyl)-1,3,5-triazine-2,4,6-triamine], for which the “% IL6 production compare to TNF stimulation of IL6 (100%), Compds tested @ 10 uM HAEC, IL6” value under setting [3] is given as 21.62%. Under setting [1], the activity at 10 µM was in the range of 0 to 25%.

With `CCN1CCCC1CNc1nc(Nc2ccc(OC)c(F)c2)nc(N2CCCC2)n1` (centres unmarked) [Compound 57, N^2-[(1-ethyl-2-pyrrolidinyl)methyl]-N^4-(3-fluoro-4-methoxyphenyl)-6-(1-pyrrolidinyl)-1,3,5-triazine-2,4-diamine], the activity at 10 µM was 0 to 25% under setting [1] and 25 to 50% under setting [2].

With `CCN1CCC[C@H]1CNc1nc(NCC2CCCCC2)nc(Nc2ccc(OC)c(F)c2)n1` [Compound 141, N^2-cyclohexylmethyl-N^4-((S)-1-ethyl-pyrrolidin-2-ylmethyl)-N^6-(3-fluoro-4-methoxyphenyl)-1,3,5-triazine-2,4,6-triamine], the “% IL6 production compare to TNF stimulation of IL6 (100%), Compds tested @ 10 uM HAEC, IL6” value under setting [3] was determined as 23.44%. The activity at 10 µM under setting [1] lay in the range of 0 to 25%.

As for `CCN1CCCC1CNc1nc(Nc2ccc(N3CCN(C)CC3)cc2)nc(NC2CCCCCC2)n1` (centres unmarked) [Compound 28, N^2-cycloheptyl-N^4-[(1-ethyl-2-pyrrolidinyl)methyl]-N^6-[4-(4-methyl-1-piperazinyl)phenyl]-1,3,5-triazine-2,4,6-triamine], the activity at 10 µM under setting [1] is 0 to 25%.

Take `COc1ccc(Nc2nc(NC3CCCCCC3)nc(N3CCSCC3)n2)cc1Cl` [drawing 1604]: the “Inflammation Data (result in words)” value is “Not Active”.

As to `COc1ccc(Nc2nc(NC3CCCCCC3)nc(NC3CCNCC3)n2)cc1`, for the setting “5 uM”, the “Inflammation Data, cell death at 5 uM” value amounted to 20%. Moreover, the “Inflammation Data, cell death at 10 uM” value (10 uM) is recorded as more than 50%.

For `CCN1CCCC1CNc1nc(Nc2ccc(OC)c(F)c2)nc(N2CCN(CC(=O)N3CCCC3)CC2)n1` (centres unmarked) [Compound 69, N^2-[(1-ethyl-2-pyrrolidinyl)methyl]-N^4-(3-fluoro-4-methoxyphenyl)-N^6-{4-[2-oxo-2-(1-pyrrolidinyl)ethyl]-1-piperazinyl}-1,3,5-triazine-2,4-diamine], the activity at 10 µM under setting [1] was 0 to 25% and the activity at 10 µM under setting [2] was 0 to 25%.

For `COc1ccc(Nc2nc(NCCCN3CCCC3=O)nc(NC3CCCCCC3)n2)cc1F` [Compound 99, 1-[3-({4-(cycloheptylamino)-6-[(3-fluoro-4-methoxyphenyl)amino]-1,3,5-triazin-2-yl}amino)propyl]-2-pyrrolidinone], the activity at 10 µM reads like this: under setting [1], 25 to 50%; under setting [2], 0 to 25%.

On to `COc1ccc(Nc2nc(NC3CCCCCC3)nc(NC(C)(C)C)n2)cc1F` [Compound 77, N^2-(tert-butyl)-N^4-cycloheptyl-N^6-(3-fluoro-4-methoxyphenyl)-1,3,5-triazine-2,4,6-triamine], for which, under setting [1], the activity at 10 µM is 0 to 25%.

For `CCN1CCCC1CNc1nc(Nc2ccc(OC)c(F)c2)nc(N2CCN(c3ccccn3)CC2)n1` (centres unmarked) [Compound 73, N^2-[(1-ethyl-2-pyrrolidinyl)methyl]-N^4-(3-fluoro-4-methoxyphenyl)-N^6-[4-(2-pyridinyl)-1-piperazinyl]-1,3,5-triazine-2,4-diamine], the activity at 10 µM under setting [1] was 0 to 25% and the activity at 10 µM under setting [2] was in the range of 0 to 25%.

As to `COc1ccc(Nc2nc(NC3CCCCCC3)nc(N3CCN(C)CC3)n2)cc1F` [Compound 87, N^2-cycloheptyl-N^4-(3-fluoro-4-methoxyphenyl)-6-(4-methyl-1-piperazinyl)-1,3,5-triazine-2,4-diamine], the activity at 10 µM under setting [2] lay within 0 to 25%.

As to `CCOC(=O)N1CCN(c2nc(NCC3CCCN3CC)nc(Nc3ccc(OC)c(F)c3)n2)CC1` (centres unmarked) [Compound 64, Ethyl 4-{4-{[(1-ethyl-2-pyrrolidinyl)methyl]amino}-N^6-[(3-fluoro-4-methoxyphenyl)amino]-1,3,5-triazin-2-yl}-1-piperazinecarboxylate], the activity at 10 µM under setting [1] lay within 25 to 50%.

Consider `CN1CCC(N(C)c2nc(Nc3ccc4ccccc4c3)nc(NC3CCCCCC3)n2)CC1` [Compound 172, N-Cycloheptyl-N′-methyl-N′-(1-methyl-piperidin-4-yl)-N″-naphthalen-2-yl-[1,3,5]tri-azine-2,4,6-triamine], for which the inhibition at 10 µM reads like this: (24 h, read-out: Inhibition of TNF-induced IL6 production, Table 7, first part) 85 to 100%; (24 h, read-out: Inhibition of TNF-induced IL6 production, Table 7, second part, column 1) 65 to 85%. For the same molecule, the “% IL6 production compare to TNF stimulation of IL6 (100%), Compds tested @ 10 μM HAEC, IL6” value (Table 7, HAEC, 10 μM compound, TNF stimulation = 100%) was 18%.

In the case of `COc1ccc(Nc2nc(NCCN3CCCCC3)nc(NC3CCCCCC3)n2)cc1F` [Compound 96, N^2-cycloheptyl-N^4-(3-fluoro-4-methoxyphenyl)-N^6-[2-(1-piperidinyl)ethyl]-1,3,5-triazine-2,4,6-triamine], the activity at 10 µM under setting [1] is 0 to 25%.

Consider `CCN1CCCC1CNc1nc(NC2CCCCCC2)nc(N(CCC#N)c2ccccc2)n1` (centres unmarked) [Compound 41, 3-[(4-(cycloheptylamino)-6-{[(1-ethyl-2-pyrrolidinyl)methyl]amino}-1,3,5-triazin-2-yl)-(phenyl)amino]propanenitrile], for which the activity at 10 µM under setting [2] was 0 to 25%.

Take `CCN1CCCC1CNc1nc(Nc2ccc(OC)c(F)c2)nc(NC2CCCCC2)n1` (centres unmarked) [Compound 55, N^2-cyclohexyl-N^4-[(1-ethyl-2-pyrrolidinyl)methyl]-N^6-(3-fluoro-4-methoxyphenyl)-1,3,5-triazine-2,4,6-triamine]: the activity at 10 µM under setting [1] lay in the range of 0 to 25%.

As for `CCN1CCCC1CNc1nc(Nc2ccc(OC)c(Cl)c2)nc(NC2CCCCCC2)n1` (centres unmarked) [Compound 48, N^2-(3-chloro-4-methoxyphenyl)-N^4-cycloheptyl-N^6-[(1-ethyl-2-pyrrolidinyl)methyl]-1,3,5-triazine-2,4,6-triamine], the activity at 10 µM under setting [1] fell in the range of 25 to 50%.

Regarding `CCN1CCCC1CNc1nc(Nc2ccc(NC(C)=O)cc2)nc(NC2CCCCCC2)n1` (centres unmarked) [Compound 29, N-{4-[(4-(cycloheptylamino)-6-{[(1-ethyl-2-pyrrolidinyl)methyl]amino}-1,3,5-triazin-2-yl)-amino]phenyl}acetamide], the activity at 10 µM reads like this: under setting [1], 0 to 25%; under setting [2], 0 to 25%.
